The results in this text go back to article PMC9973260, “Emergence of an Auxin Sensing Domain in Plant-Associated Bacteria” (mBio, 2023).

Molecules are shown by their SMILES.

For experiment [1], the target named is T1, AdmX-LBD (Serratia plymuthica, UniProt P0DV33, E213Q).
T1 construct: fast monomer-dimer equilibrium shifted toward dimer, dimer in crystal
T1 sequence (P0DV33 69-295 E213Q): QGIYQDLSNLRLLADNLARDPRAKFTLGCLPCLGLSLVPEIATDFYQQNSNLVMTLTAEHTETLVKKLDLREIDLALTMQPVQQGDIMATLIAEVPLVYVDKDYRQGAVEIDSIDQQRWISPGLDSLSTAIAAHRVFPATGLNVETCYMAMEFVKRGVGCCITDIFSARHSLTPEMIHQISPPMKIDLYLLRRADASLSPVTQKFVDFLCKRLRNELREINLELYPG
As to the kind of experiment: isothermal titration calorimetry. Format: binding. Particulars: read-out: dissociation constant.

Experiment [2] addresses T2, AdmX-LBD (Serratia plymuthica, UniProt P0DV33, C100S).
T2 construct: fast monomer-dimer equilibrium shifted toward dimer, dimer in crystal
T2 sequence (P0DV33 69-295 C100S): T1 sequence (P0DV33 69-295 E213Q)
As to the kind of experiment: isothermal titration calorimetry. The class given is binding. Conditions: read-out: dissociation constant. (Isothermal titration calorimetry measures the heat released or taken up as one component is titrated into another.)

For `O=C(O)Cc1c[nH]c2ccccc12` [indole-3-acetic acid], the figures for the Kd at AdmX-LBD [1] and at AdmX-LBD [2] were 23.9 ± 2.4 µM and 51 ± 3.4 µM, respectively.
For `O=C(O)C(=O)Cc1c[nH]c2ccccc12` [indole-3-pyruvic acid] the same measures were 6 ± 0.7 µM and 31.5 ± 1.6 µM.
